Results taken from PubChem BioAssay AID256 (DTP/NCI, 2004).
Values joined by “and” are separate entries in the source; they are usually repeats but may differ in a detail not shown here. Equal values may be shown once. Toxic doses and inconclusive results are not listed.

System: CD2F1 mice, L1210 leukemia ip, survival T/C
Assay: NCI In Vivo Anticancer Drug Screen. Data for tumor model L1210 Leukemia (intraperitoneal) in CD2F1 (CDF1) mice
Details: endpoint: mean survival time, higher = longer survival
In short: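 Antitumor effect is scored in animals hosting a serially transplanted tumor. Values compare compound-dosed animals against vehicle-only controls as a simple quotient.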

**Q.** `O=C1N[C@@H]([C@H]2CC[C@H](Cl)CN2)C(=O)N[C@H]1[C@H]1CC[C@H](Cl)CN1` was tested. Which T/C (dose: 0.25 mg/kg/injection, schedule: Q01DX009 (iv), vehicle: saline) did it give?
**A.** 100 % of control

**Q.** And the T/C (dose: 0.25 mg/kg/injection, schedule: Q03HX016 (ip), vehicle: saline)?
**A.** 115 % of control

**Q.** What about the T/C (dose: 0.5 mg/kg/injection, schedule: Q01DX009 (iv), vehicle: saline) of the same compound?
**A.** 112 % of control

**Q.** And the T/C (dose: 0.5 mg/kg/injection, schedule: Q01DX009 (oral), vehicle: saline)?
**A.** 108 % of control

**Q.** What about the T/C (dose: 0.5 mg/kg/injection, schedule: Q03HX016 (ip), vehicle: saline) of the same compound?
**A.** 151 % of control

**Q.** What about the T/C (dose: 0.5 mg/kg/injection, schedule: Q03HX024 (ip), vehicle: saline) of the same compound?
**A.** 196 % of control

**Q.** What about the T/C (dose: 1.0 mg/kg/injection, schedule: Q01DX001 (iv), vehicle: saline) of the same compound?
**A.** 108 % of control

**Q.** And the T/C (dose: 1.0 mg/kg/injection, schedule: Q01DX009 (ip), vehicle: saline)?
**A.** 167 % of control

**Q.** And the T/C (dose: 1.0 mg/kg/injection, schedule: Q01DX009 (oral), vehicle: saline)?
**A.** 160 % of control

**Q.** What about the T/C (dose: 1.0 mg/kg/injection, schedule: Q03HX008 (ip), vehicle: saline) of the same compound?
**A.** 305 % of control

**Q.** And the T/C (dose: 1.0 mg/kg/injection, schedule: Q03HX016 (ip), vehicle: saline)?
**A.** 252 % of control

**Q.** And the T/C (dose: 1.0 mg/kg/injection, schedule: Q03HX024 (ip), vehicle: saline)?
**A.** 300 % of control

**Q.** And the T/C (dose: 1.0 mg/kg/injection, schedule: Q04DX003 (oral), vehicle: saline)?
**A.** 116 % of control

**Q.** What about the T/C (dose: 1.0 mg/kg/injection, schedule: Q08DX002 (ip), vehicle: saline) of the same compound?
**A.** 120 % of control

**Q.** What about the T/C (dose: 2.0 mg/kg/injection, schedule: Q01DX001 (iv), vehicle: saline) of the same compound?
**A.** 109 % of control

**Q.** What about the T/C (dose: 2.0 mg/kg/injection, schedule: Q01DX001 (oral), vehicle: saline) of the same compound?
**A.** 111 % of control

**Q.** And the T/C (dose: 2.0 mg/kg/injection, schedule: Q01DX001 (sc), vehicle: saline)?
**A.** 123 % of control

**Q.** What about the T/C (dose: 2.0 mg/kg/injection, schedule: Q01DX009 (ip), vehicle: saline) of the same compound?
**A.** 223 % of control

**Q.** And the T/C (dose: 2.0 mg/kg/injection, schedule: Q01DX009 (iv), vehicle: saline)?
**A.** 160 % of control

**Q.** What about the T/C (dose: 2.0 mg/kg/injection, schedule: Q01DX009 (oral), vehicle: saline) of the same compound?
**A.** 158 % of control

**Q.** And the T/C (dose: 2.0 mg/kg/injection, schedule: Q03HX008 (ip), vehicle: saline)?
**A.** 354 % of control

**Q.** What about the T/C (dose: 2.0 mg/kg/injection, schedule: Q03HX016 (ip), vehicle: saline) of the same compound?
**A.** 95 % of control

**Q.** What about the T/C (dose: 2.0 mg/kg/injection, schedule: Q03HX024 (ip), vehicle: saline) of the same compound?
**A.** 93 % of control

**Q.** And the T/C (dose: 2.0 mg/kg/injection, schedule: Q04DX003 (ip), vehicle: saline)?
**A.** 171 % of control

**Q.** What about the T/C (dose: 2.0 mg/kg/injection, schedule: Q04DX003 (oral), vehicle: saline) of the same compound?
**A.** 119 % of control

**Q.** What about the T/C (dose: 2.0 mg/kg/injection, schedule: Q08DX002 (oral), vehicle: saline) of the same compound?
**A.** 117 % of control

**Q.** What about the T/C (dose: 2.5 mg/kg/injection, schedule: Q01DX001 (ip), vehicle: water) of the same compound?
**A.** 155 % of control

**Q.** And the T/C (dose: 4.0 mg/kg/injection, schedule: Q01DX001 (ip), vehicle: saline)?
**A.** 157 % of control

**Q.** And the T/C (dose: 4.0 mg/kg/injection, schedule: Q01DX001 (oral), vehicle: saline)?
**A.** 124 % of control

**Q.** And the T/C (dose: 4.0 mg/kg/injection, schedule: Q01DX009 (ip), vehicle: saline)?
**A.** 107 % of control

**Q.** What about the T/C (dose: 4.0 mg/kg/injection, schedule: Q01DX009 (iv), vehicle: saline) of the same compound?
**A.** 157 % of control

**Q.** What about the T/C (dose: 4.0 mg/kg/injection, schedule: Q01DX009 (oral), vehicle: saline) of the same compound?
**A.** 86 % of control

**Q.** What about the T/C (dose: 4.0 mg/kg/injection, schedule: Q04DX003 (ip), vehicle: saline) of the same compound?
**A.** 188 % of control and 221 % of control

**Q.** And the T/C (dose: 4.0 mg/kg/injection, schedule: Q04DX003 (oral), vehicle: saline)?
**A.** 156 % of control

**Q.** And the T/C (dose: 4.0 mg/kg/injection, schedule: Q08DX002 (ip), vehicle: saline)?
**A.** 179 % of control

**Q.** And the T/C (dose: 5.0 mg/kg/injection, schedule: Q01DX001 (ip), vehicle: water)?
**A.** 241 % of control and 269 % of control

**Q.** What about the T/C (dose: 6.0 mg/kg/injection, schedule: Q01DX001 (ip), vehicle: saline) of the same compound?
**A.** 261 % of control

**Q.** And the T/C (dose: 6.7 mg/kg/injection, schedule: Q01DX001 (ip), vehicle: saline)?
**A.** 188 % of control

**Q.** And the T/C (dose: 8.0 mg/kg/injection, schedule: Q01DX001 (ip), vehicle: saline)?
**A.** 286 % of control and 501 % of control

**Q.** And the T/C (dose: 8.0 mg/kg/injection, schedule: Q01DX001 (iv), vehicle: saline)?
**A.** 157 % of control

**Q.** And the T/C (dose: 8.0 mg/kg/injection, schedule: Q01DX001 (oral), vehicle: saline)?
**A.** 154 % of control and 175 % of control

**Q.** And the T/C (dose: 8.0 mg/kg/injection, schedule: Q01DX001 (sc), vehicle: saline)?
**A.** 162 % of control

**Q.** And the T/C (dose: 8.0 mg/kg/injection, schedule: Q04DX003 (ip), vehicle: saline)?
**A.** 246 % of control

**Q.** What about the T/C (dose: 8.0 mg/kg/injection, schedule: Q04DX003 (oral), vehicle: saline) of the same compound?
**A.** 164 % of control

**Q.** What about the T/C (dose: 8.0 mg/kg/injection, schedule: Q08DX002 (ip), vehicle: saline) of the same compound?
**A.** 415 % of control

**Q.** And the T/C (dose: 8.0 mg/kg/injection, schedule: Q08DX002 (oral), vehicle: saline)?
**A.** 155 % of control

**Q.** What about the T/C (dose: 10.0 mg/kg/injection, schedule: Q01DX001 (ip), vehicle: water) of the same compound?
**A.** 296 % of control and 349 % of control

**Q.** What about the T/C (dose: 16.0 mg/kg/injection, schedule: Q01DX001 (iv), vehicle: saline) of the same compound?
**A.** 212 % of control

**Q.** And the T/C (dose: 16.0 mg/kg/injection, schedule: Q01DX001 (oral), vehicle: saline)?
**A.** 100 % of control

**Q.** What about the T/C (dose: 16.0 mg/kg/injection, schedule: Q01DX001 (sc), vehicle: saline) of the same compound?
**A.** 94 % of control

**Q.** What about the T/C (dose: 16.0 mg/kg/injection, schedule: Q04DX003 (ip), vehicle: saline) of the same compound?
**A.** 94 % of control and 95 % of control

**Q.** And the T/C (dose: 16.0 mg/kg/injection, schedule: Q04DX003 (oral), vehicle: saline)?
**A.** 90 % of control

**Q.** What about the T/C (dose: 16.0 mg/kg/injection, schedule: Q08DX002 (ip), vehicle: saline) of the same compound?
**A.** 100 % of control

**Q.** What about the T/C (dose: 16.0 mg/kg/injection, schedule: Q08DX002 (oral), vehicle: saline) of the same compound?
**A.** 90 % of control
